Molecular target: T1, P2X7 receptor (Homo sapiens, UniProt Q99572)
T1 construct: host or cells: THP-1 cells differentiated with LPS and IFN-γ
T1 sequence (Q99572 1-595): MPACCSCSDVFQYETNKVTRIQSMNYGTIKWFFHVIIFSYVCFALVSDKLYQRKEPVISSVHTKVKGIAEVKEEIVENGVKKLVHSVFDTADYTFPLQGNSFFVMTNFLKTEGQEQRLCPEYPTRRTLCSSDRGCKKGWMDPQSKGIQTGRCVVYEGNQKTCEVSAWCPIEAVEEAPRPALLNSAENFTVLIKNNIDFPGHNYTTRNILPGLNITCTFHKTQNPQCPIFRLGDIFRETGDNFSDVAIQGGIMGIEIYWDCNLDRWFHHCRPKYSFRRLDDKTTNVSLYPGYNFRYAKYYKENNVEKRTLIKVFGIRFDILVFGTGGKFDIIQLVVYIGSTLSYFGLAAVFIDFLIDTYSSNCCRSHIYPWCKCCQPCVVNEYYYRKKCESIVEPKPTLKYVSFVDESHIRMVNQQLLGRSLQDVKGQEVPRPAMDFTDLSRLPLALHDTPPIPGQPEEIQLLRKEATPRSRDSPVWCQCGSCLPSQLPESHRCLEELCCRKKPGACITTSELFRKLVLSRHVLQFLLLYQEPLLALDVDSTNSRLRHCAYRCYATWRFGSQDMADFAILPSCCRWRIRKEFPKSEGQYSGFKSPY
Experiment: IL-1β release assay (BzATP-stimulated, LPS/IFN-γ differentiated THP-1 cells, ELISA)
Type: cell-based
Details: at 0.1 μM (asterisk symbols)
Protocol: THP-1 cells (ATCC Cat # 285-IF-100) are plated in 96 well plates at a concentration of 200,000 cells per well and allowed to differentiate in RPMI-1640 media (ATCC Cat # 30-2001) containing 10% FBS, 100 IU/mL penicillin, 100 ug/mL streptomycin, 100 ng/mL LPS and 100 ng/mL IFN-γ for 16 hours. Following differentiation, the cells are treated for an additional 2 hours in RPMI-1640 media containing 100 IU/mL penicillin, 100 ug/mL streptomycin and fresh LPS at 100 ng/mL. The cells are then pretreated for 30 minutes with the compound of interest at the appropriate concentration in RPMI media containing 100 IU/mL penicillin, 100 ug/mL streptomycin. Following the pretreatment 2′,3′-O-(4-benzoylbenzoyl)-adenosine 5′-triphosphate (Sigma Aldrich Cat# B6396) is added to a final concentration of 250 uM and the cells incubated for an additional 45 minutes. 30 uL of cell supernatant is then collected and […] levels determined via ELISA (R&D systems Cat. # HSLB50) according to manufacturer's recommendations using the Tecan Safire plate reader. Background adjusted IL-1β levels of drug treated and non-treated cells are used to calculate the percent inhibition.

SMILES | inhibition at 0.1 µM [%]
CC12CC3CC(C)(C1)CC(CC(=O)Nc1cccc4c(=O)n(Cc5ccccc5)ccc14)(C3)C2 [Compound 751] | 50 to 75
O=C(CC12CC3CC(CC(C3)C1)C2)Nc1cccc2c(=O)[nH]ccc12 [Compound 804] | ≥ 75
CC12CC3CC(C)(C1)CC(CC(=O)Nc1cccc4c(=O)[nH]ccc14)(C3)C2 [Compound 841] | ≥ 75
CC12CC3CC(C)(C1)CC(CC(=O)Nc1cccc4c1CCN(Cc1ccccc1)C4=O)(C3)C2 [Compound 777] | ≥ 75
O=C(CC12CC3CC(CC(C3)C1)C2)Nc1cccc2c(=O)n(CCN3CCSCC3)ccc12 [Compound 786] | ≥ 75
CC12CC3CC(C)(C1)CC(CC(=O)Nc1cccc4c1CCN(Cc1ccc5c(c1)OCCO5)C4=O)(C3)C2 [Compound 823] | ≥ 75
CC1CN(CCn2ccc3c(NC(=O)CC45CC6CC(CC(C6)C4)C5)cccc3c2=O)CC(C)O1 (stereo not shown) [Compound 869] | 50 to 75
CC12CC3CC(C)(C1)CC(CC(=O)Nc1cccc4c1CCN(Cc1ccc5c(c1)OCO5)C4=O)(C3)C2 [Compound 814] | ≥ 75
CC12CC3CC(C)(C1)CC(CC(=O)Nc1cccc4c(=O)n(Cc5cn6ccccc6n5)ccc14)(C3)C2 [Compound 758] | ≥ 75
CN1CCC(Cn2ccc3c(NC(=O)CC45CC6CC(CC(C6)C4)C5)cccc3c2=O)CC1 [Compound 767] | ≥ 75
O=C(CC12CC3CC(CC(C3)C1)C2)Nc1cccc2c(=O)n(CCc3c[nH]cn3)ccc12 [Compound 808] | ≥ 75
CC12CC3CC(C)(C1)CC(CC(=O)Nc1cccc4c(=O)n(Cc5cccnc5)ccc14)(C3)C2 [Compound 756] | 50 to 75
O=C(CC12CC3CC(CC(C3)C1)C2)Nc1cccc2c1CCN(Cc1ccc3c(c1)OCCO3)C2=O [Compound 791] | ≥ 75
CC(c1ccncc1)n1ccc2c(NC(=O)CC34CC5CC(CC(C5)C3)C4)cccc2c1=O (stereo not shown) [Compound 859] | ≥ 75
Cc1cc(CN2CCc3c(NC(=O)CC45CC6CC(CC(C6)C4)C5)cccc3C2=O)no1 [Compound 801] | ≥ 75

Now from value to compound:

inhibition at 0.1 µM [%] | SMILES
≥ 75 | O=C(CC12CC3CC(CC(C3)C1)C2)Nc1cccc2c(=O)n(CCN3CCOCC3)ccc12 [Compound 780]
≥ 75 | CC1CNC(CN2CCc3c(NC(=O)CC45CC6CC(CC(C6)C4)C5)cccc3C2=O)CN1 (stereo not shown) [Compound 806]
≥ 75 | O=C(CC12CC3CC(CC(C3)C1)C2)Nc1cccc2c(=O)n(Cc3cccc4c3OCCO4)ccc12 [Compound 769]
≥ 75 | CC12CC3CC(C)(C1)CC(CC(=O)Nc1cccc4c(=O)n(Cc5ccncc5)ccc14)(C3)C2 [Compound 755]
≥ 75 | O=C(CC12CC3CC(CC(C3)C1)C2)Nc1cccc2c(=O)n(Cc3ccccc3Cl)ccc12 [Compound 793]
≥ 75 | O=C(CC12CC3CC(CC(C3)C1)C2)Nc1cccc2c1CCN(Cc1c(F)cccc1F)C2=O [Compound 798]
≥ 75 | NC(=O)CN1CCc2c(NC(=O)CC34CC5CC(CC(C5)C3)C4)cccc2C1=O [Compound 828]
≥ 75 | CC12CC3CC(C)(C1)CC(CC(=O)Nc1cccc4c(=O)n(Cc5ccc(F)cc5F)ccc14)(C3)C2 [Compound 764]
≥ 75 | O=C(CC12CC3CC(CC(C3)C1)C2)Nc1cccc2c(=O)n(Cc3nccs3)ccc12 [Compound 885]
≥ 75 | CC12CC3CC(C)(C1)CC(CC(=O)Nc1cccc4c(=O)n(Cc5c(F)cccc5F)ccc14)(C3)C2 [Compound 835]

Same assay, conditions: at 0.3 μM (plus symbols)

SMILES | inhibition at 0.3 µM [%]
O=C(CC12CC3CC(CC(C3)C1)C2)Nc1cccc2c(=O)n(Cc3ccc4c(c3)OCCO4)ccc12 [Compound 707] | ≥ 75
O=C(CC12CC3CC(CC(C3)C1)C2)Nc1cccc2c1CCN(Cc1ccc(C(F)(F)F)cc1)C2=O [Compound 727] | ≥ 75
C[C@@H](c1ccccc1)n1ccc2c(NC(=O)CC34CC5CC(CC(C5)C3)C4)cccc2c1=O [Compound 720] | ≥ 75
Cc1cc(Cn2ccc3c(NC(=O)CC45CC6CC(CC(C6)C4)C5)cccc3c2=O)nn1C [Compound 719] | 25 to 50
Cc1nn(C)c(C)c1Cn1ccc2c(NC(=O)CC34CC5CC(CC(C5)C3)C4)cccc2c1=O [Compound 718] | ≥ 75
O=C(CC12CC3CC(CC(C3)C1)C2)Nc1cccc2c(=O)n(Cc3cccnc3)ccc12 [Compound 715] | ≥ 75
O=C(CC12CC3CC(CC(C3)C1)C2)Nc1cccc2c(=O)n(Cc3ccc(F)c(F)c3)ccc12 [Compound 735] | ≥ 75
C[C@@H](CO)n1ccc2c(NC(=O)CC34CC5CC(CC(C5)C3)C4)cccc2c1=O [Compound 896] | ≥ 75
O=C(CC12CC3CC(CC(C3)C1)C2)Nc1cccc2c1CCN(Cc1ccc(F)cc1F)C2=O [Compound 725, 2-Adamantan-1-yl-N-[2-(2,4-difluoro-benzyl)-1-oxo-1,2,3,4-tetrahydro-isoquinolin-5-yl]-acetamide] | ≥ 75
C[C@H](CO)n1ccc2c(NC(=O)CC34CC5CC(CC(C5)C3)C4)cccc2c1=O [Compound 897] | ≥ 75
CC(c1ccccc1)N1CCc2c(NC(=O)CC34CC5CC(CC(C5)C3)C4)cccc2C1=O (stereo not shown) [Compound 731] | ≥ 75
CN(C)CCn1ccc2c(NC(=O)CC34CC5CC(CC(C5)C3)C4)cccc2c1=O [Compound 736] | ≥ 75
O=C(CC12CC3CC(CC(C3)C1)C2)Nc1cccc2c(=O)n(Cc3ccc(F)cc3F)ccc12 [Compound 705] | ≥ 75
O=C(CC12CC3CC(CC(C3)C1)C2)Nc1cccc2c(=O)n(CC3COCCO3)ccc12 (stereo not shown) [Compound 724] | ≥ 75
Cc1cnc(CN2CCc3c(NC(=O)CC45CC6CC(CC(C6)C4)C5)cccc3C2=O)cn1 [Compound 732] | ≥ 75
C=Cn1ccc2c(N(C)C(=O)CC34CC5CC(CC(C5)C3)C4)cccc2c1=O [Compound 891] | 50 to 75
CC12CC3CC(C)(C1)CC(CC(=O)Nc1cccc4c(=O)n(C(CO)CO)ccc14)(C3)C2 [Compound 895] | ≥ 75

The next lines start with the values.

inhibition at 0.3 µM [%] | SMILES
≥ 75 | O=C(CC12CC3CC(CC(C3)C1)C2)Nc1cccc2c(=O)n(CC3CCOCC3)ccc12 [Compound 717]
≥ 75 | O=C(CC12CC3CC(CC(C3)C1)C2)Nc1cccc2c1CCN(Cc1cccnc1)C2=O [Compound 728]
≥ 75 | CC(c1ccccc1)n1ccc2c(NC(=O)CC34CC5CC(CC(C5)C3)C4)cccc2c1=O (stereo not shown) [Compound 711]
≥ 75 | C[C@H](c1ccccc1)n1ccc2c(NC(=O)CC34CC5CC(CC(C5)C3)C4)cccc2c1=O [Compound 721]
≥ 75 | CN(C)c1ccc(Cn2ccc3c(NC(=O)CC45CC6CC(CC(C6)C4)C5)cccc3c2=O)cc1 [Compound 747]
≥ 75 | O=C(CC12CC3CC(CC(C3)C1)C2)Nc1cccc2c(=O)n(Cc3c(F)cccc3Cl)ccc12 [Compound 722]
≥ 75 | CC(CO)n1ccc2c(NC(=O)CC34CC5CC(CC(C5)C3)C4)cccc2c1=O (stereo not shown) [Compound 888]

Molecular target: T1, P2X7 receptor
Experiment: Pore formation (Yo-Pro 1 uptake, BzATP-stimulated differentiated THP-1 cells)
Type: cell-based
Details: at 0.1 μM (asterisk symbols)
Protocol: THP-1 cells (ATCC Cat # 285-IF-100) are plated in 96 well plates at a concentration of 200,000 cells per well and allowed to differentiate in RPMI-1640 media (ATCC Cat # 30-2001) containing 10% FBS, 100 IU/mL penicillin, 100 ug/mL streptomycin, 100 ng/mL LPS and 100 ng/mL IFN-γ for 16 hours. Following differentiation, the cells are pretreated with the compound of interest at the appropriate concentration for 30 minutes in RPMI-1640 media containing 100 IU/mL penicillin, 100 ug/mL streptomycin. The pretreatment media is then replaced with assay buffer (20 mM HEPES, 10 mM D-glucose, 118 mM NMDG, 5 mM KCl, 0.4 mM CaCl2) containing 5 uM Yo-Pro 1 (Molecular Probes Cat # Y3603) and the compound of interest at the appropriate concentration and the cells are incubated for an additional 10 minutes. 2′,3′-O-(4-benzoylbenzoyl)-adenosine 5′-triphosphate (Sigma Aldrich Cat# B6396) is then added to a final concentration of 40 uM and fluoroscence readings measured at 491/509 excitation/emission every minute for 50 minutes using a Tecan Safire plate reader. During this time temperature is maintained at of 37° C. Background adjusted fluorescence levels between drug treated and non-treated cells are used to calculate the percent inhibition.

SMILES | inhibition at 0.1 µM [%]
CC12CC3CC(C)(C1)CC(CC(=O)Nc1cccc4c(=O)n(Cc5ccccc5)ccc14)(C3)C2 [Compound 751] | 50 to 75
O=C(CC12CC3CC(CC(C3)C1)C2)Nc1cccc2c(=O)n(CCN3CCOCC3)ccc12 [Compound 780] | ≥ 75

Same assay, conditions: at 0.3 μM (plus symbols)

SMILES | inhibition at 0.3 µM [%]
O=C(CC12CC3CC(CC(C3)C1)C2)Nc1cccc2c(=O)n(Cc3ccc4c(c3)OCCO4)ccc12 [Compound 707] | ≥ 75
O=C(CC12CC3CC(CC(C3)C1)C2)Nc1cccc2c(=O)n(CC3CCOCC3)ccc12 [Compound 717] | ≥ 75
O=C(CC12CC3CC(CC(C3)C1)C2)Nc1cccc2c1CCN(Cc1ccc(C(F)(F)F)cc1)C2=O [Compound 727] | ≥ 75
O=C(CC12CC3CC(CC(C3)C1)C2)Nc1cccc2c(=O)[nH]ccc12 [Compound 804] | ≥ 75

Reference: patent US20090170838A1, “Bicycloheteroaryl compounds as P2X7 modulators and uses thereof” (Renovis, Inc., priority 2005, published 2009)
